≈ marks a conversion by molar mass, not a printed value. Read-outs that look alike come from different tables or passages of the source. One block for each compound: values may come before it.
Assays:
A. fumigatus MYA3626 = test: Broth microdilution susceptibility testing for molds (CLSI M38-A2); type: cell-based; conditions: Aspergillus fumigatus, MYA3626; read-out: MIC or MEC for A. fumigatus MYA3626
From the text: (§1) C. neoformans strains H99, DUMC 118.00, and DUMC 158.03 and C. gattii strains R272 and RSA-MW-3515 were obtained from Duke University. C. albicans 90028, A. fumigatus MYA3626, C. neoformans 14116, C. neoformans 76484, and the pathogenic Cryptococcus reference strains panel (ATCC MP-11) were obtained from the American Type Culture Collection (ATCC; Manassas, VA, USA). The ATCC MP-11 panel consists of strains representing eight molecular types and three subtypes of C. neoformans and C. gattii.
(§2) To establish the antimicrobial activity of the APX001A analogs, broth microdilution susceptibility testing was performed according to Clinical and Laboratory Standards Institute (CLSI) guidelines M27-A3 ([47]) for yeasts and M38-A2 for molds ([48]). APX001A and analogs were first diluted in DMSO to obtain intermediate dilutions. These were further diluted in microtiter plates to obtain a final concentration of 2 to 0.002 μg/ml. One microliter of DMSO was added to the no-drug control wells. The solutions were mixed on a plate shaker for 10 min, and the plates were incubated at 35°C for 40 to 48 h (C. albicans, A. fumigatus) and 72 h (C. neoformans). The minimum concentration that led to a 50% reduction in fungal growth compared to that for the control (determined with the aid of a reading mirror) was determined as the MIC for C. albicans and C. neoformans. The minimum concentration that led to the shortening of hyphae compared to the hyphal growth in DMSO control wells was determined as the minimum effective concentration (MEC) for A. fumigatus (as read for the echinocandins). The use of the MIC and MEC endpoints for APX001A (formerly E1210) against yeasts and molds, respectively, has been described previously ([19][–][21]). For the cryptococcal synergy studies, APX001A and APX2020 MIC values were read at 50% inhibition.

C. neoformans strain H99 [1] = test: Delayed-treatment model of cryptococcal meningitis; type: in vivo, Cryptococcus neoformans; conditions: treatment from 24 h after infection, QD 7 days; APX2096 60 mg/kg i.p. + ABT, AMB 3 mg/kg i.p.
Description: As in the previous mouse model, 100-mg/kg ABT (p.o.) was administered 2 h prior to each APX2096 dose (n = 5 mice/cohort). Infection was initiated on day 1, and treatment was initiated 24 h later (day 2) rather than 1 h later. Treatments were administered for 7 days (the final dose was administered on day 8), and mice were sacrificed on day 9 for CFU enumeration.
Male CD-1 mice were infected with 5.4 × 10^4 CFU per mouse via lateral tail vein injection. […] A dose of 100-mg/kg ABT was administered orally 2 h prior to each APX2096 dose. Mice were sacrificed 24 h after the last dose, and the brain and left lung were homogenized and cultured for quantitative determination of the tissue burden (number of CFU per gram of tissue). Fungal burden data were log10 transformed and evaluated using Kruskal-Wallis tests with Dunn's multiple-comparison test for post hoc analysis (Prism software, v5; GraphPad Software, Inc., San Diego, CA). A P value of ≤0.05 was considered statistically significant (*, P ≤ 0.05; **, P ≤ 0.01). The 95% confidence interval (CI) is presented.
Fungal burden data were log10 transformed and evaluated using Kruskal-Wallis tests with Dunn's multiple-comparison test for post hoc analysis (Prism software, v5; GraphPad Software, Inc., San Diego, CA). A P value of ≤0.05 was considered statistically significant.

C. gattii = test: Broth microdilution susceptibility testing (CLSI M27-A3); type: cell-based; conditions: Cryptococcus gattii
From the text: as §1, §2

[2] = system: FLC-susceptible and FLC-nonsusceptible/resistant strains of C. neoformans and C. gattii; test: Broth microdilution, summary over the 18-strain Cryptococcus collection; type: cell-based, Cryptococcus neoformans and Cryptococcus gattii; conditions: 18 strains of C. neoformans and C. gattii
Description: as §2, with “The minimum concentration that led to the shortening of hyphae compared to the hyphal growth in DMSO control wells was determined as the minimum effective concentration (MEC) for A. fumigatus (as read for the echinocandins).” left out

C. neoformans [3] = system: C. neoformans; design: method as in PMID 15078612; conditions: U.S. isolates; cited from earlier work
C. neoformans [4] = test: Broth microdilution susceptibility testing (CLSI M27-A3); type: cell-based, Cryptococcus neoformans; conditions: Cryptococcus neoformans
From the text: as §1, §2

C. albicans 90028 = test: as above; type: cell-based, Candida albicans; conditions: Candida albicans, 90028; read-out: MIC, C. albicans 90028
From the text: as §1, §2

[5] = Acute toxicity and survival observed in the CM model with ABT; type: in vivo, mouse; conditions: i.p. dosing + ABT; dose then reduced to 60 mg/kg for surviving mice
Description: (§3) ABT at 100 mg/kg was administered orally to male CD-1 mice at 2 h prior to each APX compound dose. Mice were injected with 6.9 × 10^4 CFU of C. neoformans strain H99 per mouse via the lateral tail vein at time zero. Treatment with the APX compound was initiated at about 1 h postinfection by i.p. administration and continued for 7 days, with 100-mg/kg ABT being administered orally 2 h prior to each APX compound dose. […] Fungal burden data were log10 transformed and evaluated using Kruskal-Wallis tests with Dunn's multiple-comparison test for post hoc analysis (Prism software, v5; GraphPad Software, Inc., San Diego, CA). A P value of ≤0.05 was considered statistically significant (*, P ≤ 0.05; **, P ≤ 0.01). The 95% confidence interval (CI) is presented.
(§4) C. neoformans strain H99 was grown in yeast extract-peptone-dextrose broth at 30°C on a shaker (220 rpm) for 24 h, centrifuged (1,980 relative centrifugal force), and washed twice in phosphate-buffered saline (PBS), resuspended in PBS, and quantified by hemacytometric count. Male CD-1 mice were infected with ∼5 × 10^4 CFU per mouse via lateral tail vein injection of 100 μl. Mice were weighed, and treatment was begun within 1 h after infection. Treatments were administered daily for 7 days. Mice were weighed daily and observed for acute and chronic adverse symptoms. Mice were sacrificed on day 8, and the brain and left lung were homogenized and cultured for quantitative determination of the tissue burden (number of CFU per gram of tissue). Tissues were homogenized for 25 s in 1 ml phosphate-buffered saline using two 6.5-mm steel beads and a Mini-Beadbeater 16 apparatus (Biospec Products, Inc., Bartlesville, OK) and serially diluted in 10-fold steps. Aliquots (100 μl) of homogenate were plated and incubated for 3 to 7 days at 37°C. Fungal burden data were log10 transformed and evaluated using Kruskal-Wallis tests with Dunn's multiple-comparison test for post hoc analysis (Prism software, v5; GraphPad Software, Inc., San Diego, CA). A P value of ≤0.05 was considered statistically significant.

C. neoformans strain H99 [6] = test: Murine cryptococcal meningitis model with ABT pretreatment (preliminary experiment); type: in vivo, Cryptococcus neoformans; conditions: 7 days
Description: In a preliminary experiment, the efficacies of APX001, APX2096, and APX2097 were evaluated in the disseminated model of CM (n = 5 mice/cohort). ABT at 100 mg/kg was administered orally to male CD-1 mice 2 h prior to APX compound administration. Mice were injected with 6.9 × 10^4 CFU of C. neoformans strain H99 per mouse via the lateral tail vein at time zero. Treatment with each prodrug was initiated at about 1 h postinfection by i.p. administration and continued daily for 7 days, with 100-mg/kg ABT being administered orally 2 h prior to each APX compound dose.
as §3, §4

C. neoformans strain H99 [7] = test: Murine cryptococcal meningitis model with ABT, dose-response study; type: in vivo, Cryptococcus neoformans
Description: A dose-response study was performed with APX2096 and APX2097 to confirm the observed activity. In this study, QD doses of 7.5, 20, and 60 mg/kg were evaluated in conjunction with the administration of ABT. A 60-mg/kg dose QD without ABT was also evaluated as a control.
FIG 3 Dose-response of APX2096 and APX2097 in a murine model of cryptococcal meningitis in conjunction with ABT administration. ABT at 100 mg/kg was administered orally to male CD-1 mice at 2 h prior to each APX compound dose. Mice were injected with 4.8 × 10^4 CFU C. neoformans strain H99 per mouse via the lateral tail vein at time zero. Treatment with the APX compounds was initiated at 1 h postinfection by i.p. administration and continued for 7 days, with 100-mg/kg ABT being administered orally 2 h prior to each APX compound dose. The correction factors for prodrug potencies versus the potencies of the active moieties were similar enough such that the same factor (1.3) was used for all APX compounds. Fungal burden data were log10 transformed and evaluated using Kruskal-Wallis tests with Dunn's multiple-comparison test for post hoc analysis (Prism software, v5; GraphPad Software, Inc., San Diego, CA). […] A P value of ≤0.05 was considered statistically significant (*, P ≤ 0.05; **, P ≤ 0.01; ***, P ≤ 0.001). The 95% confidence interval (CI) is presented.
as §4

[8] = 34 mg/kg QD i.p. + ABT 100 mg/kg p.o.
[9] = 85 mg/kg QD i.p. + ABT 100 mg/kg p.o.
[10] = QD doses of 7.5, 20 and 60 mg/kg i.p. + ABT
[11] = QD doses of 7.5, 20 and 60 mg/kg i.p. + ABT, not significant

MIC (A. fumigatus MYA3626): 1 mg/L
MIC (C. gattii; C. gattii isolate MYA-4093, read-out: MIC): 0.25 mg/L
MIC (C. gattii; C. gattii isolate MYA-4094, read-out: MIC): 0.25 mg/L
MIC (C. gattii; C. gattii isolate MYA-4560 (first listing, r17), read-out: MIC): 0.063 mg/L
MIC (C. gattii; C. gattii isolate MYA-4560 (second listing, r21), read-out: MIC): 0.063 mg/L
MIC (C. gattii; C. gattii isolate MYA-4561, read-out: MIC): 0.25 mg/L
MIC (C. gattii; C. gattii isolate MYA-4562, read-out: MIC): 0.25 mg/L
MIC (C. gattii; C. gattii isolate MYA-4563, read-out: MIC): 0.125 mg/L
MIC (C. gattii; C. gattii isolate MYA-4877, read-out: MIC): 0.25 mg/L
MIC (C. gattii; C. gattii isolate RSA-MW-3615 (FLC resistant), read-out: MIC): 0.25 mg/L
MIC (C. gattii; Table 1, 50% growth inhibition for FLC, caspofungin and APX compounds, 100% for AMB, read-out: MIC, C. gattii WM276): 0.25 mg/L
MIC90 [2]: 0.25 mg/L
MIC ([2]; read-out: Geometric mean MIC): 0.215 mg/L
MIC (C. neoformans [4]; 72 h, Table 1, 50% growth inhibition for FLC, caspofungin and APX compounds, 100% for AMB, 72 h, read-out: MIC, C. neoformans H99): 0.25 mg/L
MIC (C. neoformans [4]; C. neoformans isolate 14116, read-out: MIC): 0.25 mg/L
MIC (C. neoformans [4]; C. neoformans isolate 76484, read-out: MIC): 0.25 mg/L
MIC (C. neoformans [4]; C. neoformans isolate DUMC 118.00 (FLC resistant), read-out: MIC): 0.25 mg/L
MIC (C. neoformans [4]; C. neoformans isolate DUMC 158.03 (FLC resistant), read-out: MIC): 1 mg/L
MIC (C. neoformans [4]; C. neoformans isolate MYA-4564, read-out: MIC): 0.25 mg/L
MIC (C. neoformans [4]; C. neoformans isolate MYA-4565, read-out: MIC): 0.125 mg/L
MIC (C. neoformans [4]; C. neoformans isolate MYA-4566, read-out: MIC): 0.25 mg/L
MIC (C. neoformans [4]; C. neoformans isolate MYA-4567, read-out: MIC): 0.25 mg/L
MIC (C. neoformans [4]; Table 2, C. neoformans isolate H99, read-out: MIC): 0.25 mg/L
MIC (C. albicans 90028): 1 mg/L
SMILES: C[C@@H]1[C@H](O)[C@@H](C)/C=C/C=C/C=C/C=C/C=C/C=C/C=C/[C@H](O[C@@H]2O[C@H](C)[C@@H](O)[C@H](N)[C@@H]2O)C[C@@H]2O[C@](O)(C[C@@H](O)C[C@@H](O)[C@H](O)CC[C@@H](O)C[C@@H](O)CC(=O)O[C@H]1C)C[C@H](O)[C@H]2C(=O)O [AMB, amphotericin B, reference compound]
reduction of the lung tissue fungal burden vs untreated control (C. neoformans strain H99 [1]): 4.02 log10 CFU/g
MIC90 (C. neoformans [3]): 2 mg/L (≈ 2.16 µM)

SMILES: Nc1c(-c2cc(Cc3ccc(OCc4ccccc4)cc3)no2)ccc[n+]1COP(=O)([O-])O [APX2097]
Acute toxicity observed (day of treatment) [5]: day 6
reduction in brain fungal burden (C. neoformans strain H99 [6]; [8]): 1.66 log10 CFU/g
reduction in lung fungal burden (C. neoformans strain H99 [6]; [8]): 1.07 log10 CFU/g
reduction in brain fungal burden (C. neoformans strain H99 [6]; [9]): 2.72 log10 CFU/g
reduction in lung fungal burden (C. neoformans strain H99 [6]; [9]): 3.28 log10 CFU/g
reduction in brain fungal burden (C. neoformans strain H99 [7]; 60 mg/kg QD i.p. + ABT): 1.45 log10 CFU/g
reduction in lung fungal burden (C. neoformans strain H99 [7]; 60 mg/kg QD i.p. + ABT): 1.55 log10 CFU/g
dose-dependent change in brain fungal burden: increase end of range (C. neoformans strain H99 [7]; [10]): 0.24 log10 CFU/g
dose-dependent change in lung fungal burden: increase end of range (C. neoformans strain H99 [7]; [10]): 1.20 log10 CFU/g
dose-dependent change in brain fungal burden: reduction end of range (C. neoformans strain H99 [7]; [11]): 1.45 log10 CFU/g
dose-dependent change in lung fungal burden: reduction end of range (C. neoformans strain H99 [7]; [11]): 1.55 log10 CFU/g
